Test results published in PMC12275099, “VX-445 (elexacaftor) inhibits chloride secretion across human bronchial epithelial cells by directly blocking KCa3.1 channels” (PNAS Nexus, 2025).
Several values for one entry are separate records, joined by “and”; a condition that tells them apart may be missing. Identical values can stand only once. Entries after “also recorded” stand apart in the source; their conditions may differ. Each block holds one molecule with its values, some of them ahead of it.

Tests used:
[1] = tested on: primary WT CFTR-expressing HBEs; assay: Ussing chamber Isc, forskolin-stimulated Cl- secretion; assay type: cell-based, human; conditions: for effect on the bumetanide-insensitive current: applied after forskolin and bumetanide, VX-445 10 µM, acetazolamide 1 µM
Source text: (§1) Primary human bronchial epithelial cells (HBEs) were collected from unused or discarded samples from the Center for Organ Recovery and Education via the University of Pittsburgh Pulmonary, Allergy, Critical Care, and Sleep Medicine Lung Biobank and Repository. All experimental procedures involving the use of HBEs were approved by the institutional review board (IRB STUDY19090084) and the Committee for Oversight of Research and Clinical Training Involving Decedents (CORID number 451) at the University of Pittsburgh. At all times, authors were blind to the identity of HBE donors. HBEs were cultured using the Vertex method ([72]). Studies were carried out on WT CFTR HBEs from 11 ([13]) donors and homozygous F508del/F508del CFTR HBEs from five ([5]) separate donors. HBEs were plated on Costar Transwell permeable supports ([…], 6.5 mm insert, polyester membrane, Corning) and grown at an air–liquid interface for 5+ weeks in HBE differentiation medium containing 2% Ultroser-G. Basolateral media were replaced three times per week. For whole-cell patch-clamp studies, HBEs were maintained in BronchiaLife airway media (LifeLine Cell Technology, LS-1047) and plated onto poly-L-lysine-coated coverslips (see below).
(§2) Costar Transwell inserts were mounted in a modified Ussing chamber (P2300, Physiologic Instruments) and the monolayers continuously short-circuited (VCC MC8, Physiologic Instruments) by forcing the transepithelial voltage to 0 mV. Short-circuit current (Isc) measurements were taken in symmetric solutions, containing (in mM): 120 NaCl, 25 NaHCO3, 3.3 KH2PO4, 0.8 K2HPO4, 1.2 CaCl2, 1.2 MgCl2, and 10 glucose. The pH of the solution is 7.4 when gassed with 95% O2–5% CO2 at 37°C. Compounds were added cumulatively following the establishment of a new stable current response. Amiloride was added to the apical membrane, while all other compounds were added to both membranes due to their lipophilic nature. In all experiments, 10 µM amiloride was used to inhibit sodium absorption. Percent inhibition was calculated as the change in Isc (ΔIsc) between the forskolin or DCEBIO stable current level and the Isc following addition of the compound being assessed divided by the ΔIsc between the stable forskolin- or DCEBIO-induced Isc and the Isc following bumetanide addition.

[2] = target: T1, KCa3.1 (Homo sapiens, UniProt O15554); assay: Whole-cell patch-clamp on HEK cells heterologously expressing KCa3.1; assay type: cell-based; conditions: for effect on KCa3.1 current: 10 µM, data not shown
T1 construct: expressed in transfected cells
Protocol: (§3) Our Isc results are consistent with VX-445 inhibiting KCa3.1 in HBEs. To directly assess this possibility, we initially carried out whole-cell patch-clamp studies on undifferentiated HBEs. […] Upon application of 10 µM VX-445, a majority of this current was inhibited, averaging 87 ± 4% (n = 3, P < 0.005; Fig. 3B). A summary of the current–voltage (I–V) relationship—normalized to cell capacitance—is shown in Fig. 3C, which also includes the whole-cell I–V in the presence of Tram-34. […] To ensure isolation of KCa3.1 currents and to more fully characterize this VX-445-dependent inhibition of KCa3.1, we utilized HEK cells heterologously expressing KCa3.1 (HEK-KCa3.1). Initially, we confirmed our results from HBEs, using whole-cell recordings, as above. […] In seven experiments, this inhibition averaged 58 ± 7% (P < 0.005). […] It is well recognized that drugs are carried to their targets in the blood bound to albumin, which ranges from 3.4 to 5.4%. Thus, we determined whether VX-445 (10 µM) would inhibit KCa3.1 expressed in HEK cells in the presence of 3.4% albumin. In four experiments, VX-445 inhibited an average of 51 ± 17% of the whole-cell KCa3.1 current, which is not different from that observed in the absence of albumin. To confirm the direct effect of VX-445 on KCa3.1, we utilized the excised, inside-out patch-clamp technique. The patch was then exposed to DCEBIO (100 µM) to further activate the channels ([34–37])—analogous to our Isc studies in HBEs. […] In three experiments, VX-445 inhibited an average of 63 ± 6% of the KCa3.1 current. Based on these experiments, we determined the apparent inhibitory constant, Ki for VX-445. For these experiments, patches were excised into saturating Ca^2+ (3 µM) to ensure maximal KCa3.1 activation. These studies were carried out in the absence of DCEBIO to eliminate the possibility that the inhibition observed was due to competition for the DCEBIO-binding site.
(§4) HEK cells stably expressing KCa3.1 (IK1, SK4), KCa2.3 (SK3), and KCa2.2 (SK2) were generated and cultured as previously described by us ([37], [66–71]).
(§5) HEK cells expressing the channel of interest were plated onto poly-L-lysine-coated glass coverslips 1–2 days prior to patch-clamp analysis. Electrophysiological recordings in the excised, inside-out, and whole-cell patch-clamp configurations were performed as recently described ([14]). For excised patch-clamp recordings, the pipette solution contained (in mM): 140 K-gluconate, 5 KCl, 1 CaCl2, 1 MgCl2, and 10 HEPES. The pH was adjusted to 7.2 with KOH. The bath solution contained (in mM): 145 K-gluconate, 5 KCl, 1.3 MgCl2, 10 HEPES, and 1 EGTA. Sufficient CaCl2 was added to obtain the desired free Ca^2+ concentration at a pH of 7.2 (adjusted with KOH). When recording KCa3.1 channels, ATP (300 µM) was added to the bath to diminish channel rundown ([73]). All recordings were carried out at a voltage of −100 mV, referenced to the extracellular compartment, as is standard. The apparent Ki and Hill coefficient for each CFTR corrector on KCa3.1, KCa2.3, and KCa2.2 were determined during a continuous recording by step-wise addition of increasing concentrations of compound and fitting the resultant relative remaining current to a Hill equation (Prism v. 10.1.0). The zero current level was determined by the addition of a 0 Ca^2+ solution (zero-added Ca^2+ plus 1 mM EGTA) at the end of the experiment. In the case of KCa3.1, TRAM-34, a known inhibitor of KCa3.1 ([45]), was used to confirm expression of the channel. For whole-cell experiments, pipettes contained (in mM): 145 K-gluconate, 10 EGTA, 7.5 CaCl2, 2 MgCl2, 3 mM NaATP, and 10 HEPES. The bath solution contained (in mM): 140 K-gluconate, 5 KCl, 1.0 MgCl2, 10 HEPES, and 2 CaCl2. Current–voltage relationships were determined by stepping from a holding potential of −80 mV to +80 mV in 20 mV increments for 400 ms. […]

[3] = tested on: BKCa (KCa1.1, KCNMA1) channels; set-up: method as in PMID 38954478; conditions: primary HBEs and HEK cells heterologously expressing the channel; cited from earlier work
[4] = target: T2, endogenous KCa3.1 in WT CFTR-expressing HBEs (Homo sapiens, UniProt O15554); assay: Whole-cell patch-clamp on undifferentiated HBEs; assay type: cell-based; conditions: TRAM-34 subsequent to VX-445, Fig 3C single cells
T2 construct: endogenous in cells; host or cells: undifferentiated primary human bronchial epithelial cells (WT CFTR donors)
Protocol: as §3
Primary human bronchial epithelial cells (HBEs) were collected from unused or discarded samples from the Center for Organ Recovery and Education via the University of Pittsburgh Pulmonary, Allergy, Critical Care, and Sleep Medicine Lung Biobank and Repository. All experimental procedures involving the use of HBEs were approved by the institutional review board (IRB STUDY19090084) and the Committee for Oversight of Research and Clinical Training Involving Decedents (CORID number 451) at the University of Pittsburgh. At all times, authors were blind to the identity of HBE donors. HBEs were cultured using the Vertex method ([72]). Studies were carried out on WT CFTR HBEs from 11 ([13]) donors and homozygous F508del/F508del CFTR HBEs from five ([5]) separate donors. […]

[5] = target: T1, KCa3.1; assay: Excised inside-out patch-clamp on HEK-KCa3.1; assay type: biochemical; conditions: TRAM-34 3 µM after DCEBIO and VX-445 10 µM
Protocol: as §3, §4, §5

[6] = tested on: WT CFTR HBEs; assay: Ussing chamber Isc, DCEBIO-induced Cl- secretion; assay type: cell-based, human
Source text: as §1, §2

SMILES: CC(C)(O)[C@H]1O[C@H]2CC[C@@]3(C)[C@@](O)(CC[C@H]4Cc5c([nH]c6ccccc56)[C@@]43C)C2=CC1=O [paxilline]
- Isc in the presence of paxilline ([1]; Fig 2B, single filters, paxilline 10 µM after forskolin and VX-445): 12 and 11 and 15 and 20 and 21 and 19 and 14
- effect on Isc subsequent to VX-445-induced decrease ([1]; paxilline 10 µM after forskolin and VX-445 10 µM): had no effect

- effect on KCa3.1 current [2]: failed to inhibit
SMILES: Cc1ccc(NC(=O)C2(c3ccc4c(c3)OC(F)(F)O4)CC2)nc1-c1cccc(C(=O)O)c1 [VX-809]

SMILES: CC(C)(CO)c1cc2cc(NC(=O)C3(c4ccc5c(c4)OC(F)(F)O5)CC3)c(F)cc2n1C[C@@H](O)CO [VX-661, tezacaftor]
- effect on KCa3.1 current [2]: had no effect; also recorded: failed to inhibit
- effect on BKCa [3]: had no effect
- effect on forskolin-mediated Cl- secretion ([1]; VX-661 10 µM): had no effect

SMILES: CC(=O)Nc1nnc(S(N)(=O)=O)s1 [acetazolamide]
- effect on the bumetanide-insensitive current [1]: partially inhibited the remaining current

- inhibition at 10 µM ([2]; HEK293, VX-121 10 µM, three experiments, read-out: inhibition of whole-cell KCa3.1 current): 85 ± 8%
SMILES: CC1(C)C[C@@H]2CCCNc3cccc(n3)S(=O)(=O)NC(=O)c3ccc(-n4ccc(OCCC5C6(CC6)C56CC6)n4)nc3N1C2 [VX-121, vanzacaftor]
- effect on BKCa [3]: act as direct potentiators

SMILES: CC(C)(C)c1cc(C(C)(C)C)c(NC(=O)c2c[nH]c3ccccc3c2=O)cc1O [VX-770, ivacaftor]
- effect on BKCa [3]: had no effect

SMILES: Clc1ccccc1C(c1ccccc1)(c1ccccc1)n1cccn1 [TRAM-34]
- effect on current remaining after VX-445 ([2]; TRAM-34 1 µM after VX-445 10 µM): inhibited the remainder of the current
- whole-cell current normalized to cell capacitance ([4]; -40 mV): 0.875 and 0.576
- whole-cell current normalized to cell capacitance ([4]; -60 mV): 0.344 and 0.305
- whole-cell current normalized to cell capacitance ([4]; -80 mV): 0.0478 and 0.0385
- effect on forskolin-stimulated Isc ([1]; TRAM-34 5 µM, no VX-445): inhibits a portion of the current
- effect on forskolin-stimulated Isc following VX-445 ([1]; TRAM-34 after VX-445 10 µM): failed to inhibit additional current
- effect on the bumetanide-insensitive current [1]: failed to decrease
- effect on current remaining after VX-445 [5]: inhibited the remainder of the current
- effect on DCEBIO-stimulated Isc ([6]; TRAM-34 5 µM, DCEBIO 100 µM, no VX-445): inhibits the DCEBIO-stimulated Isc response
- effect on DCEBIO-stimulated Isc following VX-445 ([6]; TRAM-34 after DCEBIO and VX-445 10 µM): had little effect

SMILES: CCCCNc1cc(C(=O)O)cc(S(N)(=O)=O)c1Oc1ccccc1 [bumetanide]
- Isc in the presence of bumetanide ([1]; Fig 1F, single filters, after forskolin): 21 and 18 and 15 and 17 and 14 and 19 and 23 and 20

SMILES: C=C[C@@]1(C)CC(=O)[C@]2(O)[C@@]3(C)[C@@H](O)CCC(C)(C)[C@@H]3[C@H](O)[C@H](OC(C)=O)[C@@]2(C)O1 [forskolin]
- Isc in the presence of forskolin ([1]; Fig 1F, single filters): 31 and 30 and 24 and 28 and 26 and 34 and 27 and 32
- Isc in the presence of forskolin ([1]; Fig 2B, single filters): 17 and 18 and 23 and 24 and 19 and 21
